Measured values taken from US20160318987A1 (MEDIMMUNE LIMITED, priority 2013, published 2016).
*1 amine or outer side, *2 acyl side, *3 side chain or, on linkers, in order; H or OH if unused. Where a SMILES comes first, the peptide text is derived from it. Primed or numbered codes have the meaning given here. Where no end group is shown, it is not given here. Side-chain parts run from the residue outwards. [ ]: non-standard residue; d: D form. The star is where a group is joined. ξ: configuration not given here. Palmitoyl(16-(5-tetrazolyl)) = O=C(CCCCCCCCCCCCCCCc1nnn[nH]1)*; γGlu = O=C(O)[C@H](CCC(=O)[*:2])N[*:1]; Palmitoyl = CCCCCCCCCCCCCCCC(=O)*; αMeF = C[C@](N)(Cc1ccccc1)C(=O)O; ξαMeF = CC(N)(Cc1ccccc1)C(=O)O; αMeK = C[C@](N)(CCCCN)C(=O)O; ξαMeK = CC(N)(CCCCN)C(=O)O; PEG2′ = not defined here; Aib = CC(C)(N)C(=O)O

Experiments:
[1] = tested on: DPP-IV, Neprilysin, Chymotrypsin, Trypsin, Pepsin; experiment: enzyme resistance, protease panel (Table 2 description); assay type: in vitro ADME
Method: Peptides for evaluation were prepared to a concentration of 1.0 mg/mL solutions in either pure water, sterile saline for injection (0.9% w/v NaCl/water) or 1× PBS (Dulbecco). 100 μL (100 μg/mL peptide) of these solutions was added to 900 μL of each protease solution. Additional experiments were performed examining protein degradation during exposure to serum and gastric fluid. For serum studies, peptides were incubated with 50% female Sprague-Dawley strain rat serum (SD rat serum). For gastric fluid studies, peptides were incubated 1:1 (volume:volume), fresh rat gastric fluid.
The peptide and enzyme (or serum or gastric fluid) were co-incubated in a temperature regulated water bath at 37° C. for the duration of the experiment. During each experiment 100 μL aliquots (10 μg peptide) of the incubated peptide-enzyme mixture were withdrawn periodically, quenched by addition of an equal volume of 5% TFA (v/v) in 1:1 water/acetonitrile to arrest proteolytic activity, and analyzed by liquid chromatography-mass spectrometry (LC/MS): Agilent Polaris C8-A column (4.6×100 mm, 3 micron) using a linear binary gradient of 10-90% MeCN (0.1% TFA v/v) in water (0.1% TFA v/v) over 30 minutes at 1.5 mL min^−1 at ambient temperature. Analytes were detected by both UV absorption at 210 nm and ionization using a Waters 3100 mass detector (ESI^+ mode). New peptidic species (fragments) derived from enzymatic cleavage of peptides were analyzed post-process, and their molecular masses were used to identify the precise cleavage position (highlighting the scissile bond in each case).

[2] = biological target: T1, hGluc-R (Homo sapiens, UniProt P47871); experiment: cAMP functional assay, cells expressing human glucagon receptor (primary assay); assay type: cell-based; conditions: n = 2
T1 construct: expressed in transfected cells

[3] = biological target: T2, hGLP-1R (Homo sapiens, UniProt P43220); experiment: cAMP functional assay, cells expressing human GLP-1 receptor (primary assay); assay type: cell-based; conditions: n = 2
T2 construct: expressed in transfected cells

[4] = biological target: T3, hGIP-R (Homo sapiens, UniProt P48546); experiment: cAMP functional assay, cells expressing human GIP receptor (primary assay); assay type: cell-based; conditions: n = 2
T3 construct: expressed in transfected cells
T3 sequence (P48546 22-466): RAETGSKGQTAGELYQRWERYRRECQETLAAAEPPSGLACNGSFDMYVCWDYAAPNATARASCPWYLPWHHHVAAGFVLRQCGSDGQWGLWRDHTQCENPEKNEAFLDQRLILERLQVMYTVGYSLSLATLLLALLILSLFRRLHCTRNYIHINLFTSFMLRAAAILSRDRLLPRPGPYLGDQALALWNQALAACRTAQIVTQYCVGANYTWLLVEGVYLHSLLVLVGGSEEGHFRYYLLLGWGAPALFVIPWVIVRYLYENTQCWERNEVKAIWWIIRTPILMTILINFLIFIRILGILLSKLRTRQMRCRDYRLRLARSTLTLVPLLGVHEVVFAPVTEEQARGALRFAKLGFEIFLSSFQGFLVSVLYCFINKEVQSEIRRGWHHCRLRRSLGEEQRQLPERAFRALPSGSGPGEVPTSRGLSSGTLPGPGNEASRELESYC

T1 sequence (P47871 26-477): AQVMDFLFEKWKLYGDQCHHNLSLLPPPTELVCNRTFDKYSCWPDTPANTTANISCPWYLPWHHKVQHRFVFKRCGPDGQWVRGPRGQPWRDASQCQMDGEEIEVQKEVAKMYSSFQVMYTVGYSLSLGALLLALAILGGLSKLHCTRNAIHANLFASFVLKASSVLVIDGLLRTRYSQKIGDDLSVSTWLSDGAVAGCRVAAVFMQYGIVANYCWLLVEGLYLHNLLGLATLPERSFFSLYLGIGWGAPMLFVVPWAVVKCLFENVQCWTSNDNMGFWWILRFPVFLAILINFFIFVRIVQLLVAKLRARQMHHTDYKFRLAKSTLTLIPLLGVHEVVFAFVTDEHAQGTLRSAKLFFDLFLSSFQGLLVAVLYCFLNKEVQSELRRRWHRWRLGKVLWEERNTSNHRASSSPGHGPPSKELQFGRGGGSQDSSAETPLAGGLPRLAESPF
T2 sequence (P43220 24-463): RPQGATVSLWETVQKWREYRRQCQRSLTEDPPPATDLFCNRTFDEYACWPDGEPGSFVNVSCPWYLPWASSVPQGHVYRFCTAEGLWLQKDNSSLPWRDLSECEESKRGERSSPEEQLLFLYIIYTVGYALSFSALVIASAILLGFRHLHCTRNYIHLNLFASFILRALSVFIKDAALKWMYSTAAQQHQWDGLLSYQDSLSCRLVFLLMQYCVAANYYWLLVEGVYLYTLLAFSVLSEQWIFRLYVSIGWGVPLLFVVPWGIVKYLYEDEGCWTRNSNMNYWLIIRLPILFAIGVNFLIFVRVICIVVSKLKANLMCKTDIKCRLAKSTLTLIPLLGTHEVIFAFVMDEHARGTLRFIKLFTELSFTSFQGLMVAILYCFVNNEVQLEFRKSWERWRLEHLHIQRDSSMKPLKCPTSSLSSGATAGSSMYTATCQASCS

## H-(Aib)^2-EG-(S)^5-(α-MeF)^6-TSDV^10 SS-(α-MeF)^13-LE^15 GQAA-(α-MeK)^20 E-(α-MeF)22^-IA-(α-MeF)^25-(V)^26-V-(α-MeK)^28-G-(G)^30-K(Ε-γ-E-Tetrazolylpalm) (H[Aib]EGS[αMeF]TSDVSS[αMeF]LEGQAA[αMeK]E[αMeF]IA[αMeF]VV[αMeK]GGK([γGlu-Palmitoyl(16-(5-tetrazolyl))])) [SEQ ID NO: 55]
[1]
  enzyme resistance (DPP-IV, Neprilysin, Chymotrypsin, Trypsin, Pepsin): Excellent enzyme resistance

## CCCCCCCCCCCCCCCC(=O)N[C@@H](CCC(=O)NCCCC[C@H](NC(=O)CNC(=O)CNC(=O)C(C)(CCCCN)NC(=O)[C@@H](NC(=O)[C@@H](NC(=O)C(C)(Cc1ccccc1)NC(=O)[C@H](C)NC(=O)[C@@H](NC(=O)C(C)(Cc1ccccc1)NC(=O)[C@H](CCC(=O)O)NC(=O)C(C)(CCCCN)NC(=O)[C@H](C)NC(=O)[C@H](C)NC(=O)[C@H](CCC(N)=O)NC(=O)CNC(=O)[C@H](CCC(=O)O)NC(=O)[C@H](CC(C)C)NC(=O)C(C)(Cc1ccccc1)NC(=O)[C@H](CO)NC(=O)[C@H](CO)NC(=O)[C@@H](NC(=O)[C@H](CC(=O)O)NC(=O)[C@H](CO)NC(=O)[C@@H](NC(=O)C(C)(Cc1ccccc1)NC(=O)[C@H](CO)NC(=O)CNC(=O)[C@H](CCC(=O)O)NC(=O)C(C)(C)NC(=O)[C@@H](N)Cc1c[nH]cn1)[C@@H](C)O)C(C)C)[C@@H](C)CC)C(C)C)C(C)C)C(N)=O)C(=O)O (stereo partly drawn) [SEQ ID NO: 54, H-(Aib)^2-EG-(S)^5-(α-MeF)^6-TSDV^10 SS-(α-MeF)^13-LE^15 GQAA-(α-MeK)^20 E-(α-MeF)^22-IA-(α-MeF)^25-(V)^26-V-(α-MeK)^28-G-(G)^30-K(Ε-γ-E-Palm)] (H-H[Aib]EGS[ξαMeF]TSDVSS[ξαMeF]LEGQAA[ξαMeK]E[ξαMeF]IA[ξαMeF]VV[ξαMeK]GGK([γGlu-Palmitoyl])-NH2)
[1]
  enzyme resistance (DPP-IV, Neprilysin, Chymotrypsin, Trypsin, Pepsin): Excellent enzyme resistance

## CCCCCCCCCCCCCCCC(=O)NCCCC[C@H](NC(=O)[C@H](CCCNC(=N)N)NC(=O)CNC(=O)[C@H](CCCCN)NC(=O)[C@@H](NC(=O)[C@H](CC(C)C)NC(=O)[C@H](Cc1c[nH]c2ccccc12)NC(=O)[C@H](C)NC(=O)[C@@H](NC(=O)[C@H](Cc1ccccc1)NC(=O)[C@H](CCC(=O)O)NC(=O)[C@H](CCCCN)NC(=O)[C@H](C)NC(=O)[C@H](C)NC(=O)[C@H](CCC(N)=O)NC(=O)CNC(=O)[C@H](CCC(=O)O)NC(=O)[C@H](CC(C)C)NC(=O)[C@H](Cc1ccc(O)cc1)NC(=O)[C@H](CO)NC(=O)[C@H](CO)NC(=O)[C@@H](NC(=O)[C@H](CC(=O)O)NC(=O)[C@H](CO)NC(=O)[C@@H](NC(=O)[C@H](Cc1ccccc1)NC(=O)[C@@H](NC(=O)CNC(=O)[C@H](CCC(=O)O)NC(=O)C(C)(C)NC(=O)[C@@H](N)Cc1c[nH]cn1)[C@@H](C)O)[C@@H](C)O)C(C)C)[C@@H](C)CC)C(C)C)C(N)=O [SEQ ID NO: 5, H-(Aib)^2-EGT^5 FTSDV^10 SSYLE^15 GQAAK^20 EFIAW^25 LVKGR^30-K(Ε-Palm), reference compound]
[2]
  EC50: 90.6 nM
[3]
  EC50: 0.0254 nM
[4]
  EC50: 90.6 nM

## CC[C@H](C)[C@H](NC(=O)[C@](C)(Cc1ccccc1)NC(=O)[C@H](CCC(=O)O)NC(=O)[C@](C)(CCCCN)NC(=O)[C@H](C)NC(=O)[C@H](C)NC(=O)[C@H](CCC(N)=O)NC(=O)CNC(=O)[C@H](CCC(=O)O)NC(=O)[C@H](CC(C)C)NC(=O)[C@](C)(Cc1ccccc1)NC(=O)[C@H](CO)NC(=O)[C@H](CO)NC(=O)[C@@H](NC(=O)[C@H](CC(=O)O)NC(=O)[C@H](CO)NC(=O)[C@@H](NC(=O)[C@](C)(Cc1ccccc1)NC(=O)[C@H](CO)NC(=O)CNC(=O)[C@H](CCC(=O)O)NC(=O)C(C)(C)NC(=O)[C@@H](N)Cc1c[nH]cn1)[C@@H](C)O)C(C)C)C(=O)N[C@@H](C)C(=O)N[C@@](C)(Cc1ccccc1)C(=O)N[C@@H](CC(C)C)C(=O)N[C@H](C(=O)N[C@@H](CCCCN)C(=O)NCC(=O)NCC(N)=O)C(C)C [SEQ ID NO: 44, H-(Aib)^2-EG-(S)^5-(α-MeF)^6-TSDV^10 SS-(α-MeF)^13-LE^15 GQAA-(α-MeK)^20 E-(α-MeF)^22-IA-(α-MeF)^25 LVKG-(G)^30] (H-H[Aib]EGS[αMeF]TSDVSS[αMeF]LEGQAA[αMeK]E[αMeF]IA[αMeF]LVKGG-NH2)
[2]
  EC50: 104 nM
[3]
  EC50: 0.00985 nM
[4]
  EC50: 104 nM

## CCCCCCCCCCCCCCCC(=O)N[C@@H](CCC(=O)NCCCC[C@H](NC(=O)[C@](C)(CCCNC(=N)N)NC(=O)CNC(=O)[C@](C)(CCCCN)NC(=O)[C@@H](NC(=O)[C@H](CC(C)C)NC(=O)[C@](C)(Cc1c[nH]c2ccccc12)NC(=O)[C@H](C)NC(=O)[C@@H](NC(=O)[C@](C)(Cc1ccccc1)NC(=O)[C@H](CCC(=O)O)NC(=O)[C@](C)(CCCCN)NC(=O)[C@H](C)NC(=O)[C@H](C)NC(=O)[C@H](CCC(N)=O)NC(=O)CNC(=O)[C@H](CCC(=O)O)NC(=O)[C@H](CC(C)C)NC(=O)[C@](C)(Cc1ccc(O)cc1)NC(=O)[C@H](CO)NC(=O)[C@H](CO)NC(=O)[C@@H](NC(=O)[C@H](CC(=O)O)NC(=O)[C@H](CO)NC(=O)[C@@H](NC(=O)[C@](C)(Cc1ccccc1)NC(=O)[C@H](CO)NC(=O)CNC(=O)[C@H](CCC(=O)O)NC(=O)C(C)(C)NC(=O)[C@@H](N)Cc1c[nH]cn1)[C@@H](C)O)C(C)C)[C@@H](C)CC)C(C)C)C(N)=O)C(=O)O [SEQ ID NO: 58, H-(Aib)^2-EG-(S)^5-(α-MeF)^6-TSDV^10 SS-(α-MeY)^13-LE^15 GQAA-(α-MeK)^20 E-(α-MeF)^22-IA-(α-MeW)^25 LV-(α-MeK)^28-G-(α-MeR)^30-K(Ε-γ-E-Palm)]
[2]
  EC50: 105 nM
[3]
  EC50: 0.0848 nM
[4]
  EC50: 105 nM

## H-(Aib)^2-EG-(S)^5-(α-MeF)^6-TSDV^10 SS-(α-MeF)^13-LE^15 GQAA-(α-MeK)^20 E-(α-MeF)^22-IA-(α-MeF)^25-(V)^26-V-(α-MeK)^28-G-(G)^30-K(Ε-γ-E-(PEG)^2-Tetrazolylpalm) (H[Aib]EGS[αMeF]TSDVSS[αMeF]LEGQAA[αMeK]E[αMeF]IA[αMeF]VV[αMeK]GGK([γGlu-PEG2′-Palmitoyl(16-(5-tetrazolyl))]); not fully specified; printed as H-(Aib)^2-EG-(S)^5-(α-MeF)^6-TSDV^10 SS-(α-MeF)^13-LE^15 GQAA-(α-MeK)^20 E-(α-MeF)^22-IA-(α-MeF)^25-(V)^26-V-(α-MeK)^28-G-(G)^30-K(Ε-γ-E-(PEG)^2-Tetrazolylpalm)) [SEQ ID NO: 56]
[1]
  enzyme resistance (DPP-IV, Neprilysin, Chymotrypsin, Trypsin, Pepsin): Excellent enzyme resistance

## CC[C@H](C)[C@H](NC(=O)[C@H](Cc1ccccc1)NC(=O)[C@H](CCC(=O)O)NC(=O)[C@](C)(CCCCN)NC(=O)[C@H](C)NC(=O)[C@H](C)NC(=O)[C@H](CCC(N)=O)NC(=O)CNC(=O)[C@H](CCC(=O)O)NC(=O)[C@H](CC(C)C)NC(=O)[C@H](Cc1ccc(O)cc1)NC(=O)[C@H](CO)NC(=O)[C@H](CO)NC(=O)[C@@H](NC(=O)[C@H](CC(=O)O)NC(=O)[C@H](CO)NC(=O)[C@@H](NC(=O)[C@H](Cc1ccccc1)NC(=O)[C@@H](NC(=O)CNC(=O)[C@H](CCC(=O)O)NC(=O)C(C)(C)NC(=O)[C@@H](N)Cc1c[nH]cn1)[C@@H](C)O)[C@@H](C)O)C(C)C)C(=O)N[C@@H](C)C(=O)N[C@@H](Cc1c[nH]c2ccccc12)C(=O)N[C@@H](CC(C)C)C(=O)N[C@H](C(=O)N[C@@H](CCCCN)C(=O)NCC(=O)N[C@@H](CCCNC(=N)N)C(N)=O)C(C)C [SEQ ID NO: 20, H-(Aib)^2-EGT^5 FTSDV^10 SSYLE^15 GQAA-(α-MeK)^20 EFIAW^25 LVKGR^30]
[2]
  EC50: 110 nM
[3]
  EC50: 0.0167 nM
[4]
  EC50: 110 nM

## CC[C@H](C)[C@H](NC(=O)[C@H](Cc1ccccc1)NC(=O)[C@H](CCC(=O)O)NC(=O)[C@H](CCCCN)NC(=O)[C@H](C)NC(=O)[C@H](C)NC(=O)[C@H](CCC(N)=O)NC(=O)CNC(=O)[C@H](CCC(=O)O)NC(=O)[C@H](CC(C)C)NC(=O)[C@H](Cc1ccc(O)cc1)NC(=O)[C@H](CO)NC(=O)[C@H](CO)NC(=O)[C@@H](NC(=O)[C@H](CC(=O)O)NC(=O)[C@H](CO)NC(=O)[C@@H](NC(=O)[C@H](Cc1ccccc1)NC(=O)[C@@H](NC(=O)CNC(=O)[C@H](CCC(=O)O)NC(=O)C(C)(C)NC(=O)[C@@H](N)Cc1c[nH]cn1)[C@@H](C)O)[C@@H](C)O)C(C)C)C(=O)N[C@@H](C)C(=O)N[C@@H](Cc1c[nH]c2ccccc12)C(=O)N[C@@H](CC(C)C)C(=O)N[C@H](C(=O)N[C@@H](CCCCN)C(=O)NCC(=O)N[C@@](C)(CCCNC(=N)N)C(N)=O)C(C)C [SEQ ID NO: 24, H-(Aib)^2-EGT^5 FTSDV^10 SSYLE^15 GQAAK^20 EFIAW^25 LVKG-(α-MeR)^30]
[2]
  EC50: 111 nM
[3]
  EC50: 0.021 nM
[4]
  EC50: 111 nM
